We go through 11 compounds from PubChem BioAssay (NCI).

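Growth conditions: 96-well plates. Treatment: test compound, 48 hours, 5 concentrations. Analysis: linear interpolation between bracketing concentrations; unreached endpoints set to highest concentration. TGI is the concentration that stops growth completely.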

Some test systems named below: NCI-H460 lung; U251 CNS; EKVX NSCLC; HCT-116 colon; SK-MEL-28 melanoma; SNB-75 CNS; CCRF-CEM leukemia; M14 melanoma; HCC-2998 colon; CAKI-1 renal.
Test in all cases: DTP human tumour cell line panel, 48 h

In the case of `O=C(O)c1nc(-c2ccccc2)[nH]c1C(=O)O`, the TGI in the assay with NCI-H460 lung turned out to be 29.2 µM; in the assay with U251 CNS, 8.33 µM; in the assay on EKVX NSCLC, 33 µM; in the assay with HCT-116 colon, 16 µM; in the assay on SK-MEL-28 melanoma, 30.2 µM; with SNB-75 CNS, 33.6 µM. Moreover, the TGI was 3.04 µM with CCRF-CEM leukemia, 25.2 µM in the assay on M14 melanoma, 12.8 µM in the assay on HCC-2998 colon and 27.5 µM in the assay with CAKI-1 renal.
For `COc1ccc2c(c1)c(CC(=O)O)c(C)n2C(=O)c1ccc(Cl)cc1`, the TGI with NCI-H460 lung, in the assay on U251 CNS, in the assay with EKVX NSCLC, in the assay on HCT-116 colon, in the assay on SK-MEL-28 melanoma and in the assay on SNB-75 CNS was more than 100 µM each time. Besides, the TGI with CCRF-CEM leukemia, in the assay with M14 melanoma, in the assay on HCC-2998 colon and in the assay with CAKI-1 renal was more than 100 µM in each case.
Take `Nc1ccccc1CC(O)C(=O)O` (stereo not given): the TGI with NCI-H460 lung, with U251 CNS, in the assay on EKVX NSCLC, in the assay on HCT-116 colon, in the assay on SK-MEL-28 melanoma and with SNB-75 CNS was more than 100 µM throughout. Moreover, the concentration for total growth inhibition (TGI) in the assay on CCRF-CEM leukemia, in the assay on M14 melanoma, with HCC-2998 colon and with CAKI-1 renal was more than 100 µM throughout.
Regarding `Nc1ncnc2c1nnn2C1CCC(CP(=O)(O)O)C1` (stereo not given), the TGI in the assay with NCI-H460 lung, in the assay on U251 CNS, with EKVX NSCLC, with HCT-116 colon, in the assay on SK-MEL-28 melanoma and in the assay with SNB-75 CNS was more than 100 µM in each case. Further, the TGI in the assay on CCRF-CEM leukemia, with M14 melanoma, with HCC-2998 colon and in the assay on CAKI-1 renal was more than 100 µM throughout.
On to `COc1c(O)cc(O)c2c(=O)cc(-c3ccccc3)oc12`, for which the concentration for total growth inhibition (TGI) with NCI-H460 lung is more than 100 µM; in the assay with U251 CNS it was more than 100 µM; with EKVX NSCLC, more than 100 µM; with HCT-116 colon it was 78.4 µM; with SK-MEL-28 melanoma, more than 100 µM; in the assay with SNB-75 CNS, more than 100 µM. Further, the concentration for total growth inhibition (TGI) in the assay with CCRF-CEM leukemia, in the assay on M14 melanoma, in the assay on HCC-2998 colon and in the assay on CAKI-1 renal was more than 100 µM throughout.
On to `O=c1[nH]nc(-c2ccccc2)n1/N=C/c1cccnc1`, for which the TGI in the assay on NCI-H460 lung, in the assay with U251 CNS, in the assay on EKVX NSCLC, in the assay on HCT-116 colon, in the assay with SK-MEL-28 melanoma and in the assay with SNB-75 CNS was more than 100 µM throughout. The TGI in the assay with CCRF-CEM leukemia was more than 100 µM; with M14 melanoma, more than 100 µM; in the assay on HCC-2998 colon, more than 100 µM; with CAKI-1 renal it was 72.4 µM.
`CC[N+]1(C)CCC(O)(c2ccc(Cl)c(Cl)c2)C(C(=O)c2ccc(Cl)c(Cl)c2)C1` (stereo not given): the total growth inhibition concentration (TGI) in the assay with NCI-H460 lung, in the assay with U251 CNS, in the assay with EKVX NSCLC, with HCT-116 colon, in the assay with SK-MEL-28 melanoma and with SNB-75 CNS was more than 10 µM in each case. The TGI was 5.98 µM in the assay on CCRF-CEM leukemia, more than 10 µM in the assay with M14 melanoma, more than 10 µM in the assay on HCC-2998 colon and more than 10 µM with CAKI-1 renal.
Turning to `O=C(OCCN=c1c2ccccc2ccc2ccccc12)c1ccc([N+](=O)[O-])cc1`, the concentration for total growth inhibition (TGI) with NCI-H460 lung, in the assay on U251 CNS, in the assay with EKVX NSCLC, in the assay on HCT-116 colon, with SK-MEL-28 melanoma and with SNB-75 CNS was more than 100 µM each time. Also, the TGI with CCRF-CEM leukemia, with M14 melanoma, with HCC-2998 colon and in the assay with CAKI-1 renal was more than 100 µM in each case.
`CC1(C)CC(C)(C)C1=NNC(N)=O`: the TGI in the assay with NCI-H460 lung, with U251 CNS, in the assay on EKVX NSCLC, in the assay on HCT-116 colon, with SK-MEL-28 melanoma and with SNB-75 CNS was more than 100 µM in each case. The TGI with CCRF-CEM leukemia, in the assay with M14 melanoma, with HCC-2998 colon and in the assay with CAKI-1 renal was more than 100 µM each time.
On to `COc1ccc(/C=C2\S/C(=N/Nc3nc(-c4ccccc4)cs3)NC2=O)cc1OC`, for which the TGI in the assay with NCI-H460 lung was more than 100 µM; in the assay on U251 CNS, 87.2 µM; with EKVX NSCLC, 98.4 µM; in the assay with HCT-116 colon, 41.6 µM; in the assay with SK-MEL-28 melanoma, 69.9 µM; in the assay with SNB-75 CNS, 64.4 µM. Further, the TGI in the assay with CCRF-CEM leukemia is 22.3 µM; in the assay on M14 melanoma it was more than 100 µM; in the assay with HCC-2998 colon, 64.2 µM; in the assay with CAKI-1 renal, more than 100 µM.
Take `CC(C)C(OC(=O)c1ccc(NCc2cc(O)ccc2O)cc1)C(C)C`: the total growth inhibition concentration (TGI) in the assay on NCI-H460 lung is 14.7 µM; in the assay on U251 CNS, 2.85 µM; with EKVX NSCLC it was 5.32 µM; in the assay with HCT-116 colon, 14 µM; in the assay with SK-MEL-28 melanoma it was 3.23 µM; with SNB-75 CNS, 3.7 µM. The TGI with CCRF-CEM leukemia is 0.589 µM; with M14 melanoma, 6.93 µM; in the assay on HCC-2998 colon, 10.2 µM; in the assay on CAKI-1 renal, 0.701 µM.
